pEC50: −log10 of the molar value.
The compounds below were run on recombinant NL4-3 virus (Renilla luciferase in nef, Gag P373S) (assay: HIV cell culture assay (luciferase activity in MT-2 cells infected with NLRluc recombinant virus)). Conditions: NL43, MT-2 cells infected 4-5 days with NLRluc recombinant virus, class symbol.
Assay type: cell-based
In short: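 MT-2 cells in RPMI/10% FBS were infected with recombinant NL4-3 (NLRluc), produced by 293T transfection and titered in MT-2 by luciferase. Serial inhibitor dilutions were present throughout a 4–5 day infection. Antiviral activity was quantified as Renilla luciferase signal via a modified Dual Luciferase read.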

Compound | pEC50
C=C(C)[C@@H]1CC[C@]2(CN3CCS(=O)(=O)CC3)CC[C@]3(C)[C@H](CC[C@@H]4[C@@]5(C)CC=C(c6ccc(C(=O)O)cc6)C(C)(C)[C@@H]5CC[C@]43C)[C@@H]12 [Example 168, 4-((1R,3aS,5aR,5bR,7aR,11aS,11bR,13aR,13bR)-3a-((1,1-dioxido-4-thiomorpholinyl)methyl)-1-isopropenyl-5a,5b,8,8,11a-pentamethyl-2,3,3a,4,5,5a,5b,6,7,7a,8,11,11a,11b,12,13,13a,13b-octadecahydro-1H-cyclopenta[a]chrysen-9-yl)benzoic acid] | > 7.00
C=C(C)[C@@H]1CC[C@]2(CNCCCN3CCCC3=O)CC[C@]3(C)[C@H](CC[C@@H]4[C@@]5(C)CC=C(c6ccc(C(=O)O)c(F)c6)C(C)(C)[C@@H]5CC[C@]43C)[C@@H]12 [Example 88, 2-fluoro-4-((1R,3aS,5aR,5bR,7aR,11aS,11bR,13aR,13bR)-5a,5b,8,8,11a-pentamethyl-3a-((3-(2-oxopyrrolidin-1-yl)propylamino)methyl)-1-(prop-1-en-2-yl)-2,3,3a,4,5,5a,5b,6,7,7a,8,11,11a,11b,12,13,13a,13b-octadecahydro-1H-cyclopenta[a]chrysen-9-yl)benzoic acid] | > 7.00
C=C(C)[C@@H]1CC[C@]2(CNCC(=O)N3CCC(C(=O)O)CC3)CC[C@]3(C)[C@H](CC[C@@H]4[C@@]5(C)CC=C(c6ccc(C(=O)O)cc6)C(C)(C)[C@@H]5CC[C@]43C)[C@@H]12 [Example 112, 1-(2-(((1R,3aS,5aR,5bR,7aR,11aS,11bR,13aR,13bR)-9-(4-carboxyphenyl)-5a,5b,8,8,11a-pentamethyl-1-(prop-1-en-2-yl)-2,3,3a,4,5,5a,5b,6,7,7a,8,11,11a,11b,12,13,13a,13b-octadecahydro-1H-cyclopenta[a]chrysen-3a-yl)methylamino)acetyl)piperidine-4-carboxylic acid] | > 7.00
C=C(C)[C@@H]1CC[C@]2(CNCCN3CCCCC3)CC[C@]3(C)[C@H](CC[C@@H]4[C@@]5(C)CC=C(c6ccc(C(=O)O)cc6)C(C)(C)[C@@H]5CC[C@]43C)[C@@H]12 [Example 9, 4-((1R,3aS,5aR,5bR,7aR,11aS,11bR,13aR,13bR)-5a,5b,8,8,11a-pentamethyl-3a-((2-(piperidin-1-yl)ethylamino)methyl)-1-(prop-1-en-2-yl)-2,3,3a,4,5,5a,5b,6,7,7a,8,11,11a,11b,12,13,13a,13b-octadecahydro-1H-cyclopenta[a]chrysen-9-yl)benzoic acid] | > 7.00
C=C(C)[C@@H]1CC[C@]2(CNC(=O)CCN(C)C)CC[C@]3(C)[C@H](CC[C@@H]4[C@@]5(C)CC=C(c6ccc(C(=O)O)cc6)C(C)(C)[C@@H]5CC[C@]43C)[C@@H]12 [Example 142, 4-((1R,3aS,5aR,5bR,7aR,11aS,11bR,13aR,13bR)-3a-((3-(dimethylamino)propanamido)methyl)-5a,5b,8,8,11a-pentamethyl-1-(prop-1-en-2-yl)-2,3,3a,4,5,5a,5b,6,7,7a,8,11,11a,11b,12,13,13a,13b-octadecahydro-1H-cyclopenta[a]chrysen-9-yl)benzoic acid] | > 7.00
C=C(C)[C@@H]1CC[C@]2(CNCCN3CCNCC3)CC[C@]3(C)[C@H](CC[C@@H]4[C@@]5(C)CC=C(c6ccc(C(=O)O)cc6)C(C)(C)[C@@H]5CC[C@]43C)[C@@H]12 [Example 8, 4-((1R,3aS,5aR,5bR,7aR,11aS,11bR,13aR,13bR)-5a,5b,8,8,11a-pentamethyl-3a-((2-(piperazin-1-yl)ethylamino)methyl)-1-(prop-1-en-2-yl)-2,3,3a,4,5,5a,5b,6,7,7a,8,11,11a,11b,12,13,13a,13b-octadecahydro-1H-cyclopenta[a]chrysen-9-yl)benzoic acid] | > 7.00
C=C(C)[C@@H]1CC[C@]2(CNC(=O)CN3CCS(=O)(=O)CC3)CC[C@]3(C)[C@H](CC[C@@H]4[C@@]5(C)CC=C(c6ccc(C(=O)O)cc6)C(C)(C)[C@@H]5CC[C@]43C)[C@@H]12 [Example 145, 4-((1R,3aS,5aR,5bR,7aR,11aS,11bR,13aR,13bR)-3a-((((1,1-dioxido-4-thiomorpholinyl)acetyl)amino)methyl)-1-isopropenyl-5a,5b,8,8,11a-pentamethyl-2,3,3a,4,5,5a,5b,6,7,7a,8,11,11a,11b,12,13,13a,13b-octadecahydro-1H-cyclopenta[a]chrysen-9-yl)benzoic acid] | > 7.00
C=C(C)[C@@H]1CC[C@]2(CNCCN3CCS(=O)(=O)CC3)CC[C@]3(C)[C@H](CC[C@@H]4[C@@]5(C)CC=C(c6ccc(C(=O)O)cc6F)C(C)(C)[C@@H]5CC[C@]43C)[C@@H]12 [Example 94, 4-((1R,3aS,5aR,5bR,7aR,11aS,11bR,13aR,13bR)-3a-(((2-(1,1-dioxido-4-thiomorpholinyl)ethyl)amino)methyl)-1-isopropenyl-5a,5b,8,8,11a-pentamethyl-2,3,3a,4,5,5a,5b,6,7,7a,8,11,11a,11b,12,13,13a,13b-octadecahydro-1H-cyclopenta[a]chrysen-9-yl)-3-fluorobenzoic acid] | > 7.00
C=C(C)[C@@H]1CC[C@]2(CNC(=O)NCCCN3CCCC3=O)CC[C@]3(C)[C@H](CC[C@@H]4[C@@]5(C)CC=C(c6ccc(C(=O)O)cc6)C(C)(C)[C@@H]5CC[C@]43C)[C@@H]12 [Example 155, 4-((1R,3aS,5aR,5bR,7aR,11aS,11bR,13aR,13bR)-5a,5b,8,8,11a-pentamethyl-3a-((3-(3-(2-oxopyrrolidin-1-yl)propyl)ureido)methyl)-1-(prop-1-en-2-yl)-2,3,3a,4,5,5a,5b,6,7,7a,8,11,11a,11b,12,13,13a,13b-octadecahydro-1H-cyclopenta[a]chrysen-9-yl)benzoic acid] | > 7.00
C=C(C)[C@@H]1CC[C@]2(CNC(=O)[C@H]3CCCN3)CC[C@]3(C)[C@H](CC[C@@H]4[C@@]5(C)CC=C(c6ccc(C(=O)O)cc6)C(C)(C)[C@@H]5CC[C@]43C)[C@@H]12 [Example 137, 4-((1R,3aS,5aR,5bR,7aR,11aS,11bR,13aR,13bR)-5a,5b,8,8,11a-pentamethyl-1-(prop-1-en-2-yl)-3a-(((R)-pyrrolidine-2-carboxamido)methyl)-2,3,3a,4,5,5a,5b,6,7,7a,8,11,11a,11b,12,13,13a,13b-octadecahydro-1H-cyclopenta[a]chrysen-9-yl)benzoic acid] | > 7.00
C=C(C)[C@@H]1CC[C@]2(CNCCN(C)CCS(C)(=O)=O)CC[C@]3(C)[C@H](CC[C@@H]4[C@@]5(C)CC=C(c6ccc(C(=O)O)cc6)C(C)(C)[C@@H]5CC[C@]43C)[C@@H]12 [Example 85, 4-((1R,3aS,5aR,5bR,7aR,11aS,11bR,13aR,13bR)-5a,5b,8,8,11a-pentamethyl-3a-((2-(methyl(2-(methylsulfonyl)ethyl)amino)ethylamino)methyl)-1-(prop-1-en-2-yl)-2,3,3a,4,5,5a,5b,6,7,7a,8,11,11a,11b,12,13,13a,13b-octadecahydro-1H-cyclopenta[a]chrysen-9-yl)benzoic acid] | > 7.00
C=C(C)[C@@H]1CC[C@]2(CNCC3CCCN3CC)CC[C@]3(C)[C@H](CC[C@@H]4[C@@]5(C)CC=C(c6ccc(C(=O)O)cc6)C(C)(C)[C@@H]5CC[C@]43C)[C@@H]12 (single isomer, unassigned) [Example 4] | > 7.00
C=C(C)[C@@H]1CC[C@]2(CNC3(C(=O)OC)CC3)CC[C@]3(C)[C@H](CC[C@@H]4[C@@]5(C)CC=C(c6ccc(C(=O)O)cc6)C(C)(C)[C@@H]5CC[C@]43C)[C@@H]12 [Example 51, 4-((1R,3aS,5aR,5bR,7aR,11aS,11bR,13aR,13bR)-3a-((1-(methoxycarbonyl)cyclopropylamino)methyl)-5a,5b,8,8,11a-pentamethyl-1-(prop-1-en-2-yl)-2,3,3a,4,5,5a,5b,6,7,7a,8,11,11a,11b,12,13,13a,13b-octadecahydro-1H-cyclopenta[a]chrysen-9-yl)benzoic acid] | > 7.00
C=C(C)[C@@H]1CC[C@]2(CNCCN(CC)CC)CC[C@]3(C)[C@H](CC[C@@H]4[C@@]5(C)CC=C(c6ccc(C(=O)O)cc6)C(C)(C)[C@@H]5CC[C@]43C)[C@@H]12 [Example 21, 4-((1R,3aS,5aR,5bR,7aR,11aS,11bR,13aR,13bR)-3a-((2-(diethylamino)ethylamino)methyl)-5a,5b,8,8,11a-pentamethyl-1-(prop-1-en-2-yl)-2,3,3a,4,5,5a,5b,6,7,7a,8,11,11a,11b,12,13,13a,13b-octadecahydro-1H-cyclopenta[a]chrysen-9-yl)benzoic acid] | > 7.00
C=C(C)[C@@H]1CC[C@]2(CNCCNC(C)=O)CC[C@]3(C)[C@H](CC[C@@H]4[C@@]5(C)CC=C(c6ccc(C(=O)O)cc6)C(C)(C)[C@@H]5CC[C@]43C)[C@@H]12 [Example 7, 4-((1R,3aS,5aR,5bR,7aR,11aS,11bR,13aR,13bR)-3a-((2-acetamidoethylamino)methyl)-5a,5b,8,8,11a-pentamethyl-1-(prop-1-en-2-yl)-2,3,3a,4,5,5a,5b,6,7,7a,8,11,11a,11b,12,13,13a,13b-octadecahydro-1H-cyclopenta[a]chrysen-9-yl)benzoic acid] | > 7.00
C=C(C)[C@@H]1CC[C@]2(CNCCCN3CCS(=O)(=O)CC3)CC[C@]3(C)[C@H](CC[C@@H]4[C@@]5(C)CC=C(c6ccc(C(=O)NS(=O)(=O)N(C)C)cc6)C(C)(C)[C@@H]5CC[C@]43C)[C@@H]12 [Example 171, N-(dimethylsulfamoyl)-4-((1R,3aS,5aR,5bR,7aR,11aS,11bR,13aR,13bR)-3a-(((3-(1,1-dioxido-4-thiomorpholinyl)propyl)amino)methyl)-1-isopropenyl-5a,5b,8,8,11a-pentamethyl-2,3,3a,4,5,5a,5b,6,7,7a,8,11,11a,11b,12,13,13a,13b-octadecahydro-1H-cyclopenta[a]chrysen-9-yl)benzamide] | > 7.00

Reference: patent publication US8748415B2 (priority 2011, dated 2014)
